# Measured values as given in EP0367747A2, “Dideoxy-L-arabinitol derivatives as antiviral compounds” (G.D. Searle & Co., priority 1988, dated 1990).
# Where two headings read alike, the source gives them in different places. Marks after values point to notes of the source that are not given here.
# Columns and labels:
# almond beta-glucosidase [1] = test: Beta-glucosidase inhibition assay, pH 7.4 (p-nitrophenol release); assay type: biochemical; settings: for IC50: Table 3, at pH 7.4, read-out: β-glucosidase IC₅₀; for β-Glucosidase pH 7.4 % Inhibition: Table 5
# Procedure: (§1) Yeast alpha-glucosidase and almond beta-glucosidase activities were measured by a modification of the method of Evans, et al., Phytochemistry 22, 768-770 (1983). The modifications included 1) assay of activities at pH 7.4 in HEPES (N-2-hydroxyethylpiperazine-N′-2-ethanesulfonic acid) buffer, 2) measurement in 96 well microtiter plates and 3) inclusion of 10% DMSO in control and test samples. The release of p-nitrophenol from the substrate p-nitrophenylglycoside was measured spectrophotometrically in the presence and absence of test compound. Each assay included a known inhibitor of the enzyme as a standard. IC₅₀ values were determined for compounds which inhibited the enzymes more than 50% at a 1 millimolar concentration. To 100 µl 50 mM HEPES buffer, pH 7.4, in a microtiter plate, add 20 µl test compound in DMSO (DMSO alone in control), 40 µl (0.136 units) beta-glucosidase (Sigma) in HEPES buffer and pre-incubate at room temperature for 15 minutes. […] Absorption change was measured at 15 to 25 minutes (reaction is linear for at least 30 minutes). Each sample was tested in triplicate. IC₅₀ values were determined from the linear portion of the log concentration vs % inhibition curve obtained from a minimum of 3 points. Castanospermine was used as standard inhibitor.
# Yeast alpha-glucosidase = target: T1, Yeast alpha-glucosidase (Saccharomyces cerevisiae, UniProt P53341); test: Alpha-glucosidase inhibition assay, pH 7.4 (p-nitrophenol release); assay type: biochemical
# T1 construct: purchased Sigma
# Procedure: as §1, with “µl (0.013” for “µl (0.136”, “units) yeast alpha-glucosidase” for “units) beta-glucosidase”, “(reaction was” for “(reaction is”, “points. Deoxynojirimycin” for “points. Castanospermine”
# almond beta-glucosidase [2] = test: Beta-glucosidase inhibition assay, pH 4.8 (p-nitrophenol release); assay type: biochemical; settings: for IC50: Table 3, at pH 4.8, read-out: β-glucosidase IC₅₀; for β-Glucosidase pH 4.8 % Inhibition: Table 5
# Procedure: Yeast alpha-glucosidase and almond beta-glucosidase activities were measured by a modification of the method of Evans, et al., Phytochemistry 22, 768-770 (1983). The modifications included 1) assay of activities at pH 7.4 in HEPES (N-2-hydroxyethylpiperazine-N′-2-ethanesulfonic acid) buffer, 2) measurement in 96 well microtiter plates and 3) inclusion of 10% DMSO in control and test samples. The release of p-nitrophenol from the substrate p-nitrophenylglycoside was measured spectrophotometrically in the presence and absence of test compound. Each assay included a known inhibitor of the enzyme as a standard. IC₅₀ values were determined for compounds which inhibited the enzymes more than 50% at a 1 millimolar concentration. To 100 µl 50 mM sodium citrate buffer, pH 4.8, in a microtiter plate, add 15 µl test compound in DMSO (DMSO alone in control), 20 µl (.017 units) beta-glucosidase (Sigma) in citrate buffer and pre-incubate at room temperature for 15 minutes. Add 25 µl 2.50 mM p-nitrophenyl-beta-D-glucopyranside in citrate buffer, as substrate. Incubate at room temperature 20 minutes (reaction is linear for at least 30 minutes). Add 50 µl 0.4 M NaOH. Read absortion change at 405 nm in a Biotek EIA Autoreader. Each sample was tested in triplicate. IC₅₀ values were determined from the linear portion of the log concentration vs % inhibition curve obtained from a minimum of 3 points. Castanospermine was used as standard inhibitor.
# [3] = system: Sheep choroid plexus(SCP) cells; test: Toxicity of compounds in control wells without virus, graded morphologically 0 to 4; assay type: cell-based; set-up: key: 0 = no toxicity; 4 = total cell lyses; settings: 0 to 4 scale
# Procedure: (§2) SCP cells were cultured in 6-well plates to confluence. Wells were washed two times with serum free Minimal Essential Medium (MEM) to remove FBS. 0.2ml of virus was added per well in MEM supplemented with 4mM glutamine and gentamycin. After 1 hour adsorption, the virus was aspirated from each well. The appropriate concentration of each compound in 5 ml of Medium 199 (M-199) supplemented with 2% lamb serum, 4mM glutamine, 0.5% agarose and gentamycin was added to each well. Cultures were incubated at 37°C in a humidified 5% CO₂ incubator for 3-4 weeks. To terminate the test: cultures were fixed in 10% formalin, the agar removed, the monolayers stained with 1% crystal violet and plaques counted. Each compound concentration was run in triplicate. […] 0 is no toxicity observed while 4 is total lysing of the cell monolayer.
# Control wells without virus were completed to determine the toxicity of compounds.
# visna virus = test: Inhibition of visna virus in vitro (plaque reduction assay / 96 well plate assay) in SCP cells; assay type: cell-based; set-up: key to Antiviral Activity: A = active compound; I = inactive; settings: for Antiviral Activity: Table 4; for EC50 / inhibition at 1 µM / inhibition at 10 µM / inhibition at 100 µM / inhibition at 1000 µM: Visna-maedi virus; for EC50: inhibition of visna virus, read-out: EC₅₀; for inhibition at 1 µM: Concentration 0.001 mM; for inhibition at 10 µM: Concentration 0.01 mM; for inhibition at 100 µM: Concentration 0.1 mM; for inhibition at 1000 µM: Concentration 1.0 mM
# Procedure: Various compounds as prepared above were tested for inhibition of visna virus in vitro in a plaque reduction assay as follows:
# Sheep choroid plexus(SCP) cells were obtained from American Type Culture Collection (ATCC) catalogue number CRL 1700 and were routinely passaged in vitro in Dulbecco's Modified Eagles (DME) medium supplemented with 20% fetal bovine serum (FBS). SCP cells were passaged once per week at a 1:2 or 1:3 split ratio. Visna was titrated by plaque assay in six-well plates. Virus pools were stored at -70°C.
# as §2
# The 96 well plate assay was performed similarly to the plaque assay above with modifications. SCP cells were seeded at 1 x 10⁴ cells per well in 0.1 ml DME medium. When confluent, the wells were washed with serum free MEM and 25ul of virus added in M-199 supplemented with 2% lamb serum. After 1 hour, 75uL of medium containing test compound was added to each well containing virus. After 2-3 weeks incubation the cytopathic effect of the virus was determined by staining with a vital stain. Cell viability was measured by determining stain density using a 96 well plate reader.
# [4] = Table 3, pH 7.4, read-out: α-glucosidase IC₅₀
# [5] = Table 5, values marked *, read-out: α-Glucosidase IC₅₀
# T1 sequence (P53341 whole entry): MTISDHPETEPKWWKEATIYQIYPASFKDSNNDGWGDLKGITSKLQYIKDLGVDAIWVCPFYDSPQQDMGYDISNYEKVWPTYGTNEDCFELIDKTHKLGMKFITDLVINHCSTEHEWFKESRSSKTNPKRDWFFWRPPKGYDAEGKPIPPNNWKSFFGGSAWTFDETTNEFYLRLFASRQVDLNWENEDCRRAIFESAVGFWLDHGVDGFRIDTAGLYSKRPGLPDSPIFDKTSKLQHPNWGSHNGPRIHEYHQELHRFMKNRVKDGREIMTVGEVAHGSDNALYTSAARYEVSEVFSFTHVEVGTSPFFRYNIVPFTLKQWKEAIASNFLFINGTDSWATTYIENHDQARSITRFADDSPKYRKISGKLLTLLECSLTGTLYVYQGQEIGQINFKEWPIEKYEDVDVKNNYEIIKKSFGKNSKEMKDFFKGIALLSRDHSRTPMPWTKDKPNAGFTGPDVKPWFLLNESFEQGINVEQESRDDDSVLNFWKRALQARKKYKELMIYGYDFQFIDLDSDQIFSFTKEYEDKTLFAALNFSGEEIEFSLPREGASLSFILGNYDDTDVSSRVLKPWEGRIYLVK
smiles,measurement,setting,value
"OC[C@H]1[C@H](O)[C@@H](O)CN1CCCc1ccccc1 [Example 16, 1,4-([3-Propylphenyl]imino)-1,4-dideoxy-L-arabinitol]",IC50,almond beta-glucosidase [1],> 1 mM
same,β-Glucosidase pH 7.4 % Inhibition,almond beta-glucosidase [1]; at 1.0 mM,31%
same,IC50,Yeast alpha-glucosidase; [4],13 µM
same,IC50,almond beta-glucosidase [2],> 1 mM
same,β-Glucosidase pH 4.8 % Inhibition,almond beta-glucosidase [2]; at 1.0 mM,34%
same,Toxicity,"[3]; Table 4, 0.01 mM Concn.",0
same,Toxicity,"[3]; Table 4, 0.1 mM Concn.",0
same,Toxicity,"[3]; Table 4, 1.0 mM Concn.",3
"CCCCCCN1C[C@H](OC(C)=O)[C@@H](OC(C)=O)[C@@H]1COC(C)=O [Example 7, 1,4-(Hexylimino)-1,4-dideoxy-L-arabinitol, triacetate]",Antiviral Activity,visna virus; 0.01 mM Concn.,A
same,Antiviral Activity,visna virus; 0.1 mM Concn.,A
same,Toxicity,"[3]; Table 4, 0.01 mM Concn.",0
same,Toxicity,"[3]; Table 4, 0.1 mM Concn.",2
same,Toxicity,"[3]; Table 4, 1.0 mM Concn.",4
"CCCCN1CC(O)C(O)C1CO [Example 4, 1,4-(Butylimino)-1,4-dideoxy-L-arabinitol]",β-Glucosidase pH 7.4 % Inhibition,almond beta-glucosidase [1]; at 1.0 mM,26%
same,IC50,Yeast alpha-glucosidase; [5],227 µM
same,β-Glucosidase pH 4.8 % Inhibition,almond beta-glucosidase [2]; at 1.0 mM,20%
same,Toxicity,"[3]; Table 4, 0.01 mM Concn.",0
same,Toxicity,"[3]; Table 4, 0.1 mM Concn.",0
same,Toxicity,"[3]; Table 4, 1.0 mM Concn.",0
"CCCC(=O)OC[C@H]1[C@H](OC(=O)CCC)[C@@H](OC(=O)CCC)CN1C(=O)OCc1ccccc1 [Example 22, 1,4-(Benzyloxycarbonylimino)-1,4-dideoxy-L-arabinitol, tributyrate]",β-Glucosidase pH 7.4 % Inhibition,almond beta-glucosidase [1]; at 10 µM (**),2%**
same,inhibition at 10 µM,"Yeast alpha-glucosidase; Table 5, at 10 µM (**), read-out: α-Glucosidase % Inhibition",30%
same,β-Glucosidase pH 4.8 % Inhibition,almond beta-glucosidase [2]; at 10 µM (**),11%**
same,Toxicity,"[3]; Table 4, 0.1 mM Concn.",1
same,Toxicity,"[3]; Table 4, 1.0 mM Concn.",2
"O=C(OCc1ccccc1)N1C[C@H](O)[C@@H](O)[C@@H]1CO [Example 17, 1,4-(Benzyloxycarbonylimino)-1,4-dideoxy-L-arabinitol]",β-Glucosidase pH 7.4 % Inhibition,almond beta-glucosidase [1]; at 1.0 mM,4%
same,IC50,Yeast alpha-glucosidase; [5],482 µM
same,β-Glucosidase pH 4.8 % Inhibition,almond beta-glucosidase [2]; at 1.0 mM,4%
"CCc1ccc(CN2C[C@H](OC(C)=O)[C@@H](OC(C)=O)[C@@H]2COC(C)=O)cc1 [Example 10, 1,4-([4-Ethylphenyl]methylimino)-1,4-dideoxy-L-arabinitol, triacetate]",Toxicity,"[3]; Table 4, 0.01 mM Concn.",1
same,Toxicity,"[3]; Table 4, 0.1 mM Concn.",1
same,Toxicity,"[3]; Table 4, 1.0 mM Concn.",4
"CCCCCCN1CC(O)C(O)C1CO [Example 6, 1,4-(Hexylimino)-1,4-dideoxy-L-arabinitol]",EC50,visna virus,125 µM
same,IC50,Yeast alpha-glucosidase; [4],35 µM
"CCCCN1C[C@H](OC(C)=O)[C@@H](OC(C)=O)[C@@H]1COC(C)=O [Example 5, 1,4-(Butylimino)-1,4-dideoxy-L-arabinitol, triacetate]",inhibition at 1 µM,visna virus,9%
same,inhibition at 10 µM,visna virus,10%
same,inhibition at 100 µM,visna virus,10%
same,inhibition at 1000 µM,visna virus,83%
same,Toxicity,[3]; Concentration 0.001 mM,0
same,Toxicity,[3]; Concentration 0.01 mM,0
same,Toxicity,[3]; Concentration 0.1 mM,0
same,Toxicity,[3]; Concentration 1.0 mM,0
"OCCN1C[C@H](O)[C@@H](O)[C@@H]1CO [Example 2, 1,4-Dideoxy-1,4-([2-hydroxyethyl]imino)-L-arabinitol]",β-Glucosidase pH 7.4 % Inhibition,almond beta-glucosidase [1]; at 1.0 mM,45%
same,IC50,Yeast alpha-glucosidase; [5],178 µM
same,β-Glucosidase pH 4.8 % Inhibition,almond beta-glucosidase [2]; at 1.0 mM,14%
same,Toxicity,"[3]; Table 4, 0.01 mM Concn.",0
same,Toxicity,"[3]; Table 4, 0.1 mM Concn.",0
"OC[C@H]1[C@H](O)[C@@H](O)CN1Cc1ccc(Cl)cc1 [Example 8, 1,4-([4-Chlorophenyl]methylimino)-1,4-dideoxy-L-arabinitol]",IC50,almond beta-glucosidase [1],> 1 mM
same,β-Glucosidase pH 7.4 % Inhibition,almond beta-glucosidase [1]; at 1.0 mM,26%
same,IC50,Yeast alpha-glucosidase; [4],2.2 µM
same,IC50,almond beta-glucosidase [2],> 1 mM
same,β-Glucosidase pH 4.8 % Inhibition,almond beta-glucosidase [2]; at 1.0 mM,19%
same,Toxicity,"[3]; Table 4, 0.01 mM Concn.",0
same,Toxicity,"[3]; Table 4, 1.0 mM Concn.",3
"CC(=O)OC[C@H]1[C@H](OC(C)=O)[C@@H](OC(C)=O)CN1C(=O)c1ccccc1 [Example 27, 1,4-(Benzoylimino)-1,4-dideoxy-L-arabinitol, triacetate]",inhibition at 1000 µM,"Yeast alpha-glucosidase; Table 3, at 1 mM, read-out: α-glucosidase Inhibitory Activity",23%
"CCc1ccc(CN2C[C@H](O)[C@@H](O)[C@@H]2CO)cc1 [Example 9, 1,4-([4-Ethylphenyl]methylimino)-1,4-dideoxy-L-arabinitol]",EC50,visna virus,100 µM
"CCC(=O)N1C[C@H](OC(C)=O)[C@@H](OC(C)=O)[C@@H]1COC(C)=O [Example 31, 1,4-(Propionylimino)-1,4-dideoxy-L-arabinitol, triacetate]",Toxicity,"[3]; Table 4, 0.1 mM Concn.",1
same,Toxicity,"[3]; Table 4, 1.0 mM Concn.",3
"CCCCN1C[C@H](O)[C@@H](O)[C@H](O)[C@H]1CO [N-Bu-DNJ, N-butyl derivative of 1,5-dideoxy-1,5-imino-D-glucitol, reference compound]",inhibition at 1 µM,visna virus,-74%
same,inhibition at 10 µM,visna virus,13%
same,inhibition at 100 µM,visna virus,100%
same,inhibition at 1000 µM,visna virus,100%
same,Toxicity,[3]; Concentration 0.001 mM,0
same,Toxicity,[3]; Concentration 0.01 mM,0
same,Toxicity,[3]; Concentration 0.1 mM,1
same,Toxicity,[3]; Concentration 1.0 mM,2
"CC(C)C(=O)OC[C@H]1[C@H](OC(=O)C(C)C)[C@@H](OC(=O)C(C)C)CN1C(=O)OCc1ccccc1 [Example 24, 1,4-(Benzyloxycarbonylimino)-1,4-dideoxy-L-arabinitol, triisobutyrate]",β-Glucosidase pH 7.4 % Inhibition,almond beta-glucosidase [1]; at 1.0 mM,1%
same,IC50,Yeast alpha-glucosidase; [5],33 µM
same,β-Glucosidase pH 4.8 % Inhibition,almond beta-glucosidase [2]; at 1.0 mM,7%
"CC(=O)OCCCCCN1C[C@H](OC(C)=O)[C@@H](OC(C)=O)[C@@H]1COC(C)=O [Example 15, 1,4-([5-Acetyloxypentyl]imino)-1,4-dideoxy-L-arabinitol, triacetate]",EC50,visna virus,100 µM
"CCCC(=O)OC[C@@H]1NC[C@H](OC(=O)CCC)[C@H]1OC(=O)CCC [Example 23, 1,4-Imino-1,4-dideoxy-L-arabinitol, tributyrate]",EC50,visna virus,1 µM
